Source: patent publication EP1092007B1, “A NEW IMPROVED ENZYME CONTAINING GRANULE” (Novozymes A/S, priority 1998, dated 2000)

assay: Measurement of constant humidity values for coating compounds; assay type: physicochemical; settings: 20°C; % RH of air over saturated aqueous solution
Method: The term "constant humidity" (in the context of the invention sometimes abbreviated as CH) of a compound or substance is to be understood as the % RH of atmospheric air in equilibrium with a saturated aqueous solution of said compound in contact with the solid phase of said compound, all confined within a closed space at a given temperature. […] Accordingly CH20 °C =50% for a compound means that air with a 50% humidity will be in equilibrium with a saturated aqueous solution of the compound at 20°C. Accordingly the term constant humidity is a measure of the hygroscopic properties of a compound.
The constant humidity of water soluble compound coating materials were measured by preparing a saturated aqueous solution with excess of solid phase of the compound in an open beaker.

| SMILES | CH20°C (constant humidity) |
| --- | --- |
| N.O=P(O)(O)O [(NH4)H2PO4] | 93.1% |
| O=P([O-])(O)O.[K+] [KH2PO4] | 92% |
| O=S(=O)([O-])O.[K+] [KHSO4] | 86% |
| O=P([O-])([O-])O.[Na+].[Na+] [Na2HPO4] | 95% |
| O=S(=O)([O-])[O-].[Na+].[Na+] [Na2SO4, sodium sulfate] | 93% |
| O=S(=O)([O-])[O-].[Zn+2] [ZnSO4] | 90% |

same assay, conditions: 25°C

| SMILES | Constant humidities at 25°C |
| --- | --- |
| N.N.O=S(=O)(O)O [Ammonium sulfate] | 79 |
| O=S(=O)([O-])[O-].[Na+].[Na+] [Na2SO4, sodium sulfate] | 93 |
| O=C([O-])CC(O)(CC(=O)[O-])C(=O)[O-].[Na+].[Na+].[Na+] [sodium citrate] | 86 |
| O=C[O-].[Na+] [sodium formiate] | 56 |

same assay, conditions: 25°C; % RH of air over saturated aqueous solution

| SMILES | CH25°C (constant humidity) |
| --- | --- |
| O=S(=O)([O-])[O-].[K+].[K+] [Example K2SO4, K2SO4] | 99% |
| O=P([O-])([O-])[O-].[Na+].[Na+].[Na+] [Na3PO4] | 92% |
| O=C([O-])CC(O)(CC(=O)[O-])C(=O)[O-].[Na+].[Na+].[Na+] [sodium citrate] | 86% |
